Test results published in US20060063702A1, “Neuromedin U 2 receptor agonists and uses thereof” (priority 2004, published 2006).
“Also recorded” adds a separate entry of the source. Where no end group is shown, it is not given here.

Tests used:
[1] = molecular target: T1, human NMU-2R (Homo sapiens, UniProt Q9GZQ4); assay: NMU-2R reporter gene (luciferase) assay in HEK-293/NMU-2R/3MCS/Luci cells; format: cell-based; conditions: for activation of NMU-2R, expression of reporter gene luciferase: in the presence of forskolin 5 μmol/L
T1 construct: expressed in transfected cells
T1 sequence (Q9GZQ4 whole entry): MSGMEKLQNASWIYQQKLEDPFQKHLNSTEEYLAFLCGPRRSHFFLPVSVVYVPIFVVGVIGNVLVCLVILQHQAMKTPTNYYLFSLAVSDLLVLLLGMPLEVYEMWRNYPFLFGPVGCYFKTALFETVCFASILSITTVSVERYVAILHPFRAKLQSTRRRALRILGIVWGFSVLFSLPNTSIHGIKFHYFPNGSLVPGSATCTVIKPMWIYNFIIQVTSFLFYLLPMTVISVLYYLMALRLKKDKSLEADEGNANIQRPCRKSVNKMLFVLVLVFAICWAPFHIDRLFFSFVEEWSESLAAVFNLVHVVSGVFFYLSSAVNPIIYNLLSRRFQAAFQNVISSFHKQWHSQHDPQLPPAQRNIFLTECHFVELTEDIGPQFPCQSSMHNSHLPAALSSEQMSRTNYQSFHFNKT
Experimental: Establishment of stable cell line: HEK-293 cells were maintained in DMEM with 10% FBS (Gibco) and 1% non-essential amino acid at 37° C. […] Twenty-four hours after transfection, cell culture medium was replaced with fresh medium containing G418 at final concentration of 800 mg/L. Stable cell line was generated using limited dilution based on the luciferase activity in the presence of NmU and forskolin (5 μmol/L). The stable cell line was named HEK-293/NMU-2R/3MCS/Luci cells. Luciferase assay and screening for NMU-2R agonists: The luciferase activity was measured according to the protocol from Promega. Briefly, 100 μL of HEK-293/NMU-2R/3MCS/Luci cells at 4×10^4 cells/mL were added into each well of white 96 -well plate (flat, clear bottom, Costar). The cells were maintained in DMEM containing 10% FBS (Gibco) and 1% non-essential amino acid, and incubated at 37° C., 5% CO2 overnight. […] Finally, 110 μL of luciferase substrate Bright GloTM (Promega) was added into each well. Luciferase activity was measured using […] (Molecular Device).

[2] = tested on: other GPCRs; assay: Specificity assay in more than twenty other GPCR stable cell lines; format: cell-based
Experimental: Several stable cell lines were generated to examine the specificity of the compounds. First, the activity of the compounds in cell line expressing the reporter gene alone were tested. Since the reporter gene cell line was not transfected with NMU-2R expression vector, compounds that can activate the reporter gene expression in this cell line were not NMU-2R agonists. In addition, the compounds in cell lines expressing other GPCRs were tested. More than twenty different GPCR stable cell lines were generated for the specificity assay.

[3] = molecular target: T2, NMU-1R (Homo sapiens, UniProt Q9HB89); assay: Activity for NMU-1R; format: cell-based
T2 sequence (Q9HB89 1-426): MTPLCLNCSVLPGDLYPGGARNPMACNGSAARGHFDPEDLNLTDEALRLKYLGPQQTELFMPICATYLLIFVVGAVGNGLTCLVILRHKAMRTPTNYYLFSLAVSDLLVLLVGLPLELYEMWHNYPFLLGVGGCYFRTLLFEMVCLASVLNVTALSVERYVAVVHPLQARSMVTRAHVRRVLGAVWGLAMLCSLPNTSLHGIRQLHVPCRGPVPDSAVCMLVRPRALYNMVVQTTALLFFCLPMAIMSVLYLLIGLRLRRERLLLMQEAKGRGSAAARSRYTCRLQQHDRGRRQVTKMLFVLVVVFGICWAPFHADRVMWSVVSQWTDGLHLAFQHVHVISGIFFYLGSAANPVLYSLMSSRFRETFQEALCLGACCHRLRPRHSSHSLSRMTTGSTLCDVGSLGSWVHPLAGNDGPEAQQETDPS

[4] = molecular target: T1, human NMU-2R; conditions: literature refs 5-7, 15-20; cited from earlier work

Row | activity for NMU-1R [3] | induction of reporter gene expression ([1]; NmU alone, without forskolin) | Molecule | activation of NMU-2R, expression of reporter gene luciferase [1] | effect on other GPCRs [2] | potency of receptor activation [4]
1 |  |  | COc1ccc([C@@H]2CC(=O)c3c(O)cc(O[C@@H]4O[C@H](CO[C@@H]5O[C@@H](C)[C@H](O)[C@@H](O)[C@H]5O)[C@@H](O)[C@H](O)[C@H]4O)cc3O2)cc1O [Hesperidin] | potential NMU-2R agonists |  | 
2 |  |  | COc1ccc(-c2oc3c(CC=C(C)C)c(O[C@@H]4O[C@H](CO)[C@@H](O)[C@H](O)[C@H]4O)cc(O)c3c(=O)c2O[C@@H]2O[C@@H](C)[C@H](O)[C@@H](O)[C@H]2O)cc1 [Icariin] | potential NMU-2R agonists |  | 
3 | no activity |  | C[C@@H]1O[C@@H](OC[C@H]2O[C@@H](Oc3c(-c4ccc(O)c(O)c4)oc4cc(O)cc(O)c4c3=O)[C@H](O)[C@@H](O)[C@@H]2O)[C@H](O)[C@H](O)[C@H]1O [Rutin] |  | no activity | 
4 |  | only slightly induced | Neuromedin U (FRVDEEFQSPFASQSRGYFLFRPRN; ends and bridges not checked; UniProt P48645 142-166, looked up) [NmU, peptide hormone, natural ligand for NMU-2R] | best response; also recorded: significantly increased |  | nanomolar range
